Paper doi:10.1101/2021.02.21.432137v1 (biorxiv, 2021)
Where two headings read alike, the source gives them in different places.

Experiments:
human recombinant STK4 = target: T1, human recombinant STK4 (Homo sapiens, UniProt Q13043); settings: inhibitor
T1 sequence (Q13043 1-487): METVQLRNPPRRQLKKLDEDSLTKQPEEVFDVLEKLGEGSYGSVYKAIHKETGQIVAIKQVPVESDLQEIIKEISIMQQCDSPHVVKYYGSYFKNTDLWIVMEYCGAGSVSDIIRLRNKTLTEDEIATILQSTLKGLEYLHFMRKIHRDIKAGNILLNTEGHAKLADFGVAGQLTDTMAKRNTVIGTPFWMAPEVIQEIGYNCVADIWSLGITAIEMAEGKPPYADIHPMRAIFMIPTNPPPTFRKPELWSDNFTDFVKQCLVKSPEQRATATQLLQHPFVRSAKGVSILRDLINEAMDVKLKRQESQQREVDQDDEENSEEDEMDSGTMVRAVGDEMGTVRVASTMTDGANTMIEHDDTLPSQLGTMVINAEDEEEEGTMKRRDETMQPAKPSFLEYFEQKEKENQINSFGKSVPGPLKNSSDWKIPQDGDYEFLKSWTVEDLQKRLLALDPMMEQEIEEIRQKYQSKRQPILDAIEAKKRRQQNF

[1] = target: human recombinant STK24 (aka MST3) (Homo sapiens, UniProt Q9Y6E0); settings: inhibitor
[2] = target: human recombinant STK26 (aka MST4) (Homo sapiens, UniProt Q9P289); settings: inhibitor
[3] = target: T2, human recombinant STK3 (MST2) (Homo sapiens, UniProt Q13188); settings: inhibitor
T2 sequence (Q13188 1-491 limits assumed): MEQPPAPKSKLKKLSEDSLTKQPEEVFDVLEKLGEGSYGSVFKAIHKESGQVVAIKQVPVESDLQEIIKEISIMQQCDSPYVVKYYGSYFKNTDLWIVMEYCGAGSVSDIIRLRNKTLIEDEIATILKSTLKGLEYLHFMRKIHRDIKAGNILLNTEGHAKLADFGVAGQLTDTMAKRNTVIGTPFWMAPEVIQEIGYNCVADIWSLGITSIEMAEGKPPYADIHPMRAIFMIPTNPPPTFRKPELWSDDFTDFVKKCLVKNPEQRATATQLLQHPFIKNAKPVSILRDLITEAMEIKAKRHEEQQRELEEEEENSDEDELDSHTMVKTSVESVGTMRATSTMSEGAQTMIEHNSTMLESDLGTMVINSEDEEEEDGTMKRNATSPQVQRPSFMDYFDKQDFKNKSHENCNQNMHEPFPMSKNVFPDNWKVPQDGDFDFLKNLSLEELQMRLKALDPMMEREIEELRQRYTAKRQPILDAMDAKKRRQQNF

[4] = target: T2, human recombinant STK3 (MST2); test: radiometric kinase assay; type: biochemical
[5] = target: T3, NanoLuc-STK3 (STK3-NanoBRET) (Homo sapiens, UniProt Q13188); test: NanoBRET tracer displacement in live cells; type: cell-based
T3 sequence (Q13188 1-491): T2 sequence (Q13188 1-491 limits assumed)

human recombinant STK24 (aka MST3), sequence (Q9Y6E0 whole entry): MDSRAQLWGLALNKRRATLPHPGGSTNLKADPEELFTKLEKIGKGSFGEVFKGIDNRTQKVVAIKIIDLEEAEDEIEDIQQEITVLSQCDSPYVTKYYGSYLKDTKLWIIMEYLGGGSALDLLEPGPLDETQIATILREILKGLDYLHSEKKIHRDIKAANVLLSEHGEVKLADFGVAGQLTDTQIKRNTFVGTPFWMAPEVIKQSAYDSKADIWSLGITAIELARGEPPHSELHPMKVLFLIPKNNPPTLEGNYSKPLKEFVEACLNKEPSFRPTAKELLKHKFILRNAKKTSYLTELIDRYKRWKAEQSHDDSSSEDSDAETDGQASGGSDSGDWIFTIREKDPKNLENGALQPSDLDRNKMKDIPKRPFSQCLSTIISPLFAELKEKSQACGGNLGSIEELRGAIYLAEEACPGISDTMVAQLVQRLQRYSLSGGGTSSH
human recombinant STK26 (aka MST4), sequence (Q9P289 2-416): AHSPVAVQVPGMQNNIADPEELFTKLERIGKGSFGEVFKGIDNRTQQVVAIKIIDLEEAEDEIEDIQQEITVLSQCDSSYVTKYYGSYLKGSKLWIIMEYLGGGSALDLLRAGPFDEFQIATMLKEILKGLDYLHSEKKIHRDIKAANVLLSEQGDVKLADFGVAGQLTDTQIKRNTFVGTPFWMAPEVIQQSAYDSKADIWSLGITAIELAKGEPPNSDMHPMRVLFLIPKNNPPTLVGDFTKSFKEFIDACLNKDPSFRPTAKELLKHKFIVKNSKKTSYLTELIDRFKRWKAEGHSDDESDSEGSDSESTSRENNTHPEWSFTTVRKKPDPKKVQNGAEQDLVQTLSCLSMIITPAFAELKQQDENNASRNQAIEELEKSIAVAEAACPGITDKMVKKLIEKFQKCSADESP

For `COc1cccc([C@H](C)NC(=O)c2c[nH]c3ncc(-c4ccccc4)nc23)c1` [A5], the “STK4 % activity remaining (1µM)” value (human recombinant STK4) was 39%, the “MST3 % activity remaining (1µM)” value [1] was 21% and the “MST4 % activity remaining (1µM)” value [2] was 74%.
For `CS(=O)(=O)N1CCN(C(=O)c2c[nH]c3ncc(C4CC4)nc23)CC1` [A9], the “STK3 % activity remaining (1µM)” value [3] was 82%, the “STK4 % activity remaining (1µM)” value (human recombinant STK4) was 98% and the “MST3 % activity remaining (1µM)” value [1] was 92%. The “MST4 % activity remaining (1µM)” value [2] was 106%.
In the case of `C[C@H](NC(=O)c1c[nH]c2ncc(C3CC3)nc12)C(C)(C)O` [A2, UNC-BE4-018], the IC50 [4] is reported as 195 nM and the IC50 [5] is reported as 9200 nM.
`CNS(=O)(=O)CCNC(=O)c1c[nH]c2ncc(C3CC3)nc12` [A11] was tested, and the “STK3 % activity remaining (1µM)” value [3] was 89%, the “STK4 % activity remaining (1µM)” value (human recombinant STK4) was 36% and the “MST3 % activity remaining (1µM)” value [1] was 60%. For the same compound, the “MST4 % activity remaining (1µM)” value [2] was 71%.
Compound `C[C@H](NC(=O)c1c[nH]c2ncc(-c3ccccc3)nc12)C(C)(C)C` [A3, UNC-BE4-035] has an IC50 [4] of 7 nM and an IC50 [5] of 2000 nM.
In the case of `O=C(c1c[nH]c2ncc(C3CC3)nc12)N1CCOCC1` [A13, UNC-BE4-036], the IC50 [5] is reported as > 10000 nM.
In the case of `O=C(c1c[nH]c2ncc(C3CC3)nc12)N1CCOCC1` [A13], the “STK3 % activity remaining (1µM)” value [3] is reported as 138%, the “STK4 % activity remaining (1µM)” value (human recombinant STK4) is reported as 84% and the “MST3 % activity remaining (1µM)” value [1] is reported as 85%. The “MST4 % activity remaining (1µM)” value [2] was 82%.
Work on `C[C@H](NC(=O)c1c[nH]c2ncc(-c3ccccc3)nc12)C(C)(C)O` [A4, UNC-BE4-36-1] yielded an IC50 [4] of 124 nM and an IC50 [5] of 2100 nM.
With `COCCCNC(=O)c1c[nH]c2ncc(C3CC3)nc12` [A6] the “STK3 % activity remaining (1µM)” value [3] was 44%, the “STK4 % activity remaining (1µM)” value (human recombinant STK4) was 26% and the “MST3 % activity remaining (1µM)” value [1] was 31%. The “MST4 % activity remaining (1µM)” value [2] was 74%.
For `C[C@H](NC(=O)c1c[nH]c2ncc(C3CC3)nc12)C(C)(C)O` [A2], the “STK3 % activity remaining (1µM)” value [3] was 15%, the “STK4 % activity remaining (1µM)” value (human recombinant STK4) was 7% and the “MST3 % activity remaining (1µM)” value [1] was 12%. The “MST4 % activity remaining (1µM)” value [2] was 54%.
Work on `CN(C)c1ncnc2[nH]cc(-c3cccc(C#N)c3)c12` [B1, UNC-SOB-5-16] yielded an IC50 [4] of 113 nM and an IC50 [5] of 4300 nM.
In the case of `CNS(=O)(=O)CCNC(=O)c1c[nH]c2ncc(C3CC3)nc12` [A11, UNC-BE4-033], the IC50 [5] is reported as > 10000 nM.
In the case of `CS(=O)(=O)N1CCN(C(=O)c2c[nH]c3ncc(C4CC4)nc23)CC1` [A9, UNC-BE4-031], the IC50 [5] is reported as > 10000 nM.
With `C[C@H](NC(=O)c1c[nH]c2ncc(-c3ccccc3)nc12)C(C)(C)C` [A3] the “STK4 % activity remaining (1µM)” value (human recombinant STK4) was 2%, the “MST3 % activity remaining (1µM)” value [1] was 6% and the “MST4 % activity remaining (1µM)” value [2] was 27%.
In the case of `COCCCNC(=O)c1c[nH]c2ncc(C3CC3)nc12` [A6, UNC-BE4-032], the IC50 [5] is reported as > 10000 nM.
With `COc1cccc([C@H](C)NC(=O)c2c[nH]c3ncc(-c4ccccc4)nc23)c1` [A5, UNC-BE4-040-1] the IC50 ([4]; ATP at Km, myelin basic protein substrate) was 391 nM and the IC50 ([5]; read-out: NB IC50, NanoBRET Tracer K10 at […], live HEK-293 cells) was > 10000 nM.
In the case of `C[C@H](NC(=O)c1c[nH]c2ncc(-c3ccccc3)nc12)C(C)(C)O` [A4], the “STK4 % activity remaining (1µM)” value (human recombinant STK4) is reported as 4%, the “MST3 % activity remaining (1µM)” value [1] is reported as 9% and the “MST4 % activity remaining (1µM)” value [2] is reported as 51%.
`CN1C(=O)c2sccc2N(C)c2nc(Nc3ccc(S(N)(=O)=O)cc3)ncc21` [XMU-MP-1] was tested, and the “STK4 % activity remaining (1µM)” value (human recombinant STK4) was 14%, the “MST3 % activity remaining (1µM)” value [1] was 15% and the “MST4 % activity remaining (1µM)” value [2] was 40%.
